This note sets out measurements from patent US9938269B2, “Inhibitor compounds of phosphodiesterase type 10A” (ABBVIE INC., priority 2011, dated 2018).

Where a name gives a salt, the structure may show the parent alone.

Series [1] can be described thus: Determination of the microsomal half-life, human liver microsomes. The note with it: for microsomal CLint at 0.5 μM: human, liver microsomes, pH 7.4; for Human mCl (mikrosomal clearance): human liver microsomes, 0.5 μM test substance, 0.25 mg microsomal protein, pH 7.4, 37° C., NADPH.
Series [2] in a line: Determination of the microsomal half-life, rat liver microsomes. Particulars: for microsomal CLint at 0.5 μM: rat, liver microsomes, pH 7.4; for Rat mCl (mikrosomal clearance): rat liver microsomes, 0.5 μM test substance, 0.25 mg microsomal protein, pH 7.4, 37° C., NADPH.

`Cn1nccc1-c1ccnc2c1C(=O)N(CCc1nc3ccccn3n1)C2` [Example 213, 4-(2-Methyl-2H-pyrazol-3-yl)-6-(2-[1,2,4]triazolo[1,5-a]pyridin-2-yl-ethyl)-6,7-dihydro-pyrrolo[3,4-b]pyridin-5-one trifluoroacetate]: the microsomal CLint at 0.5 μM in series [1] and in series [2] was below 100 µL/min/mg throughout.

On to `O=C1c2c(cccc2N2C[C@H]3CCCNC[C@H]3C2)CN1CCc1ccc2ccccc2n1` [Example 318, 7-(3aS,8aS)-Octahydro-pyrrolo[3,4-c]azepin-2-yl-2-(2-quinolin-2-yl-ethyl)-2,3-dihydro-isoindol-1-one trifluoroacetate], for which the intrinsic clearance (microsomal CLint) at 0.5 μM in series [1] was 100 to 220 µL/min/mg; in series [2], above 220 µL/min/mg.

As for `CN1CCN(c2cccc3c2C(=O)N(CCc2nc4ccccc4n2C)C3)CC1` [Example 254, 2-[2-(1-Methyl-1H-benzoimidazol-2-yl)-ethyl]-7-(4-methyl-piperazin-1-yl)-2,3-dihydro-isoindol-1-one], the intrinsic metabolic clearance (microsomal CLint) at 0.5 μM in series [1] and in series [2] was below 100 µL/min/mg each time.

As for `O=C1c2c(-c3ccncc3)ccnc2CN1CCc1cc2ccccc2o1` [compound 391, 6-[2-(Benzofuran-2-yl)ethyl]-4-(4-pyridyl)-7H-pyrrolo[3,4-b]pyridin-5-one], the microsomal CLint at 0.5 μM in series [1] and in series [2] was below 100 µL/min/mg in each case.

As for `O=C1c2c(cccc2N2CCS(=O)(=O)CC2)CN1CCc1nc2ccccn2n1` [Example 232, 7-(1,1-Dioxothiomorpholin-4-yl)-2-(2-[1,2,4]triazolo[1,5-a]pyridin-2-yl-ethyl)-2,3-dihydro-isoindol-1-one], the intrinsic metabolic clearance (microsomal CLint) at 0.5 μM in series [1] and in series [2] was below 100 µL/min/mg throughout.

For the compound `Cc1ccc(COc2cccc3c2C(=O)N(CCc2ccc4ccccc4n2)C3)cn1` [Example 172, 7-(6-Methyl-pyridin-3-ylmethoxy)-2-(2-quinolin-2-yl-ethyl)-2,3-dihydro-isoindol-1-one], the intrinsic metabolic clearance (microsomal CLint) at 0.5 μM in series [1] and in series [2] was 100 to 220 µL/min/mg each time.

On to `COc1ccc(-c2cccc3c2C(=O)N(CCc2cn4ccccc4n2)C3)cc1` [Example 237, 2-(2-Imidazo[1,2-a]pyridin-2-yl-ethyl)-7-(4-methoxy-phenyl)-2,3-dihydro-isoindol-1-one], for which the intrinsic metabolic clearance (microsomal CLint) at 0.5 μM in series [1] and in series [2] was 100 to 220 µL/min/mg in each case.

For `C=C(C)c1ccc(Oc2ccc(-c3cccc4c3C(=O)N(CCc3ccc5ccccc5n3)C4)cc2)cc1` [Example 146, 7-[4-(4-Isopropenyl-phenoxy)-phenyl]-2-(2-quinolin-2-yl-ethyl)-2,3-dihydro-isoindol-1-one], the values for the microsomal CLint at 0.5 μM in series [1] and in series [2] were above 220 µL/min/mg and 100 to 220 µL/min/mg, respectively.

For the compound `O=C1c2c(cccc2OCc2ccncc2)CN1CCc1ccc2ccccc2n1` [Example 128, 7-(Pyridin-4-ylmethoxy)-2-(2-quinolin-2-yl-ethyl)-2,3-dihydro-isoindol-1-one], the intrinsic clearance (microsomal CLint) at 0.5 μM in series [1] is above 220 µL/min/mg; in series [2] it was 100 to 220 µL/min/mg.

For `O=C1c2c(cccc2N2CC[C@@H]3NCC[C@@H]3C2)CN1CCc1ccc2ccccc2n1` [Example 220, 7-(3aR,7aS)-Octahydro-pyrrolo[3,2-c]pyridin-5-yl-2-(2-quinolin-2-yl-ethyl)-2,3-dihydro-isoindol-1-one trifluoroacetate], the microsomal CLint at 0.5 μM in series [1] was 100 to 220 µL/min/mg; in series [2] it was above 220 µL/min/mg.

In the case of `COc1ccc(NC2COC2)c2c1CN(CCc1cn3ccccc3n1)C2=O` [Example 362, 2-(2-Imidazo[1,2-a]pyridin-2-yl-ethyl)-4-methoxy-7-(oxetan-3-ylamino)-2,3-dihydro-isoindol-1-one], the intrinsic metabolic clearance (microsomal CLint) at 0.5 μM in series [1] and in series [2] was below 100 µL/min/mg each time.

For the compound `O=C1c2c(NC3COC3)ccnc2CN1CCc1cn2ccccc2n1` [Example 360, 6-(2-Imidazo[1,2-a]pyridin-2-yl-ethyl)-4-(oxetan-3-ylamino)-6,7-dihydro-pyrrolo[3,4-b]pyridin-5-one], the intrinsic clearance (microsomal CLint) at 0.5 μM in series [1] and in series [2] was below 100 µL/min/mg each time.

`CN1CCN(C2CCN(c3cccc4c3C(=O)N(CCc3ccc5ccccc5n3)C4)CC2)CC1` [Example 100, 7-[4-(4-Methyl-piperazin-1-yl)-piperidin-1-yl]-2-(2-quinolin-2-yl-ethyl)-2,3-dihydro-isoindol-1-one trifluoroacetate]: the microsomal CLint at 0.5 μM is 100 to 220 µL/min/mg in series [1] and below 100 µL/min/mg in series [2].

For `CN1CCN(Cc2ccc(-c3cccc4c3C(=O)N(CCc3ccc5ccccc5n3)C4)cc2)CC1` [Example 167, 7-[4-(4-Methyl-piperazin-1-ylmethyl)-phenyl]-2-(2-quinolin-2-yl-ethyl)-2,3-dihydro-isoindol-1-one trifluoroacetate], the figures for the microsomal CLint at 0.5 μM in series [1] and in series [2] were above 220 µL/min/mg and 100 to 220 µL/min/mg, respectively.

As for `CCN1CCN(C2CCN(c3cccc4c3C(=O)N(CCc3ccc5ccccc5n3)C4)CC2)CC1` [Example 157, 7-[4-(4-Ethyl-piperazin-1-yl)-piperidin-1-yl]-2-(2-quinolin-2-yl-ethyl)-2,3-dihydro-isoindol-1-one trifluoroacetate], the figures for the microsomal CLint at 0.5 μM in series [1] and in series [2] were above 220 µL/min/mg and below 100 µL/min/mg, respectively.

In the case of `O=C1c2c(cccc2N2CC3CNCC3C2)CN1CCc1ccc2ccccc2n1` (stereo not shown) [Example 192, 7-(Hexahydro-pyrrolo[3,4-c]pyrrol-2-yl)-2-(2-quinolin-2-yl-ethyl)-2,3-dihydro-isoindol-1-one], the figures for the intrinsic clearance (microsomal CLint) at 0.5 μM in series [1] and in series [2] were below 100 µL/min/mg and above 220 µL/min/mg, respectively.

For the compound `CN1CCN(c2cccc3c2CN(CCc2ccc4ccccc4n2)C3=O)CC1` [Example 144, 4-(4-Methyl-piperazin-1-yl)-2-(2-quinolin-2-yl-ethyl)-2,3-dihydro-isoindol-1-one], the microsomal CLint at 0.5 μM in series [1] was below 100 µL/min/mg; in series [2] it was 100 to 220 µL/min/mg.

For `CC1(O)CCC(Nc2ccc(-c3cccc4c3C(=O)N(CCc3ccc5ccccc5n3)C4)cc2Cl)CC1` (stereo not shown) [Example 155, 7-[3-Chloro-4-(4-hydroxy-4-methyl-cyclohexylamino)-phenyl]-2-(2-quinolin-2-yl-ethyl)-2,3-dihydro-isoindol-1-one hydrochloride], the intrinsic clearance (microsomal CLint) at 0.5 μM in series [1] was above 220 µL/min/mg; in series [2], 100 to 220 µL/min/mg.

In the case of `CN(C)CC1CN(c2cccc3c2C(=O)N(CCc2ccc4ccccc4n2)C3)CCO1` (stereo not shown) [Example 229, 7-(2-Dimethylaminomethyl-morpholin-4-yl)-2-(2-quinolin-2-yl-ethyl)-2,3-dihydro-isoindol-1-one trifluoroacetate], the intrinsic clearance (microsomal CLint) at 0.5 μM in series [1] and in series [2] was below 100 µL/min/mg throughout.

`CN1CC2CN(c3cccc4c3C(=O)N(CCc3ccc5ccccc5n3)C4)CC2C1` (stereo not shown) [Example 154, 7-(5-Methyl-hexahydro-pyrrolo[3,4-c]pyrrol-2-yl)-2-(2-quinolin-2-yl-ethyl)-2,3-dihydro-isoindol-1-one] came in with a microsomal CLint at 0.5 μM in series [1] below 100 µL/min/mg. The “Rat mCl (mikrosomal clearance)” value in series [2] is on record as “−∘”.

In the case of `Cn1c(CCN2Cc3nccc(NC4COC4)c3C2=O)nc2ccccc21` [Example 359, 6-[2-(1-Methyl-1H-benzoimidazol-2-yl)-ethyl]-4-(oxetan-3-ylamino)-6,7-dihydro-pyrrolo[3,4-b]pyridin-5-one], the microsomal CLint at 0.5 μM in series [1] and in series [2] was below 100 µL/min/mg each time.

For `O=C1c2c(cccc2OCc2ccccn2)CN1CCc1ccc2ccccc2n1` [Example 129, 7-(Pyridin-2-ylmethoxy)-2-(2-quinolin-2-yl-ethyl)-2,3-dihydro-isoindol-1-one], the microsomal CLint at 0.5 μM is 100 to 220 µL/min/mg in series [1] and below 100 µL/min/mg in series [2].

As for `O=C1c2c(-c3cccnc3)ccnc2CN1CCc1cn2ccccc2n1` [Example 358, 6-(2-Imidazo[1,2-a]pyridin-2-yl-ethyl)-4-pyridin-3-yl-6,7-dihydro-pyrrolo[3,4-b]pyridin-5-one], the microsomal CLint at 0.5 μM in series [1] and in series [2] was below 100 µL/min/mg throughout.

As for `CN1CCN(Cc2cccc3c2C(=O)N(CCc2ccc4ccccc4n2)C3)CC1` [Example 177, 7-(4-Methyl-piperazin-1-ylmethyl)-2-(2-quinolin-2-yl-ethyl)-2,3-dihydro-isoindol-1-one], the intrinsic clearance (microsomal CLint) at 0.5 μM in series [1] and in series [2] was below 100 µL/min/mg throughout.

Turning to `CN1CCN(c2cccc3c2C(=O)N(CCc2nc4ccccn4n2)C3)CC1` [Example 233, 7-(4-Methyl-piperazin-1-yl)-2-(2-[1,2,4]triazolo[1,5-a]pyridin-2-yl-ethyl)-2,3-dihydro-isoindol-1-one], the intrinsic clearance (microsomal CLint) at 0.5 μM in series [1] and in series [2] was below 100 µL/min/mg in each case.

Turning to `COCC1CN(c2cccc3c2C(=O)N(CCc2ccc4ccccc4n2)C3)CCO1` (stereo not shown) [Example 298, 7-(2-Methoxymethyl-morpholin-4-yl)-2-(2-quinolin-2-yl-ethyl)-2,3-dihydro-isoindol-1-one], the intrinsic metabolic clearance (microsomal CLint) at 0.5 μM in series [1] and in series [2] was 100 to 220 µL/min/mg in each case.

Take `C[C@@H]1CN(c2cccc3c2C(=O)N(CCc2ccc4ccccc4n2)C3)CC[C@@H]1c1ccc(OC(F)(F)F)cc1F.O=C(O)C(F)(F)F` [Example 147, 7-[(3S,4S)-4-(2-Fluoro-4-trifluoromethoxy-phenyl)-3-methyl-piperidin-1-yl]-2-(2-quinolin-2-yl-ethyl)-2,3-dihydro-isoindol-1-one trifluororacetate]: the “Human mCl (mikrosomal clearance)” value in series [1] is “∘ (∘ not avialable or >220 μl min^−1 mg^−1)”. Moreover, the “Rat mCl (mikrosomal clearance)” value in series [2] is reported as “+ (+: 100-220 μl min^−1 mg^−1)”.

Turning to `O=C1c2c(cccc2-c2ccncc2)CN1CCc1ccnc(-c2ccccc2)n1` [Example 122, (2-(2-Phenylpyrimidin-4-yl)ethyl)-7-(pyridin-4-yl)isoindolin-1-one], the “Human mCl (mikrosomal clearance)” value in series [1] is “++ (++: 100 μl min^−1 mg^−1)”. For the same compound, in series [2], the “Rat mCl (mikrosomal clearance)” value is reported as “+ (+: 100-220 μl min^−1 mg^−1)”.

For the compound `O=C1c2c(cccc2N2CCOCC2)CN1CCc1nc2ccccn2n1` [Example 231, 7-Morpholin-4-yl-2-(2-[1,2,4]triazolo[1,5-a]pyridin-2-yl-ethyl)-2,3-dihydro-isoindol-1-one], the microsomal CLint at 0.5 μM in series [1] and in series [2] was below 100 µL/min/mg in each case.
